One block for each molecule: values may come before it. Calls of active or inactive are those of the source. The rule behind the calls is not given here.
How the values were obtained:
Mus musculus [1] = assay: Antipsychotic activity in ip dosed mouse administered 15 mins prior to testing by SmartCube automated system based method; type: functional; settings: for minimal effective dose: Mus musculus, ip, read-out: MED
Mus musculus [2] = assay: Antipsychotic activity in mouse at 30 mg/kg, ip administered 15 mins prior to testing by SmartCube automated system based method relative to standard compound; type: functional
Cytochrome P450 3A4 = Cytochrome P450 3A4 (Homo sapiens, UniProt P08684); assay: Inhibition of CYP3A4 in human liver microsomes assessed as reduction in midazolam 1-hydroxylation/testosterone 6beta-hydroxylation by LC-MS/MS analysis; type: ADME
[3] = target: Sodium-dependent noradrenaline transporter (Homo sapiens) (UniProt P23975); assay: Displacement of [3H]nisoxetine from human recombinant norepinephrine transporter expressed in CHO cells at 10 uM after 120 mins by scintillation counting analysis; type: cell-based
[4] = target: D(2) dopamine receptor (Homo sapiens) (UniProt P14416); assay: Displacement of [3H]methyl-spiperone from human recombinant D2 receptor expressed in HEK293 cells at 10 uM after 60 mins by scintillation counting analysis; type: cell-based
[5] = target: Voltage-gated inwardly rectifying potassium channel KCNH2 (Homo sapiens, UniProt Q12809); assay: Inhibition of human ERG; settings: human
[6] = Chemical stability of the compound in 20 mM NH4Ac buffer solution at pH 7.1 after 96 hrs by HPLC analysis; type: physicochemical; settings: pH 7.1, 96 h
[7] = target: Adrenergic receptor alpha-2 (Rattus norvegicus) (UniProt P22086+P19328+P22909); assay: Displacement of [3H]RX 821002 from rat cerebral cortex adrenergic alpha2 receptor at 10 uM after 60 mins by scintillation counting analysis; type: tissue-based
[8] = Half life in human liver microsomes at 3 uM in presence of NADPH by LC-MS/MS analysis; type: ADME
Cytochrome P450 2C19 = Cytochrome P450 2C19 (Homo sapiens, UniProt P33261); assay: Inhibition of CYP2C19 in human liver microsomes assessed as reduction in S-mephenytoin 4-hydroxylation by LC-MS/MS analysis; type: ADME
Mus musculus [9] = assay: Antipsychotic activity in mouse at 10 mg/kg, ip administered 15 mins prior to testing by SmartCube automated system based method relative to standard compound; type: functional, organism-based
[10] = target: T1, 5-hydroxytryptamine receptor 2A (Homo sapiens, UniProt P28223); assay: Antagonist activity at 5HT2A (unknown origin)
[11] = target: 5-hydroxytryptamine receptor 6 (Homo sapiens) (UniProt P50406); assay: Displacement of [3H]LSD from human recombinant 5-HT6 receptor expressed in CHO cells at 10 uM after 120 mins by scintillation counting analysis; type: cell-based
Mus musculus [12] = assay: Effect on basal locomotor activity in C57Bl/6J mouse at 10 to 30 mg/kg, po; type: ADME, organism-based; settings: in vivo
[13] = Chemical stability of the compound in 0.01 M HCl at pH 2 after 96 hrs by HPLC analysis; type: physicochemical; settings: buffer, pH 2, 96 h
[14] = target: T1, 5-hydroxytryptamine receptor 2A; assay: Displacement of [3H]ketanserin from human recombinant 5-HT2A receptor expressed in HEK293 cells at 10 uM after 60 mins by scintillation counting analysis; type: cell-based
[15] = target: Sodium-dependent dopamine transporter (Homo sapiens) (UniProt Q01959); assay: Displacement of [3H]BTCP from human recombinant dopamine transporter expressed in CHO cells at 10 uM after 120 mins by scintillation counting analysis; type: cell-based
Cytochrome P450 2D6 = Cytochrome P450 2D6 (Homo sapiens, UniProt P10635); assay: Inhibition of CYP2D6 in human liver microsomes assessed as reduction in dextromethorphan o-demethylation by LC-MS/MS analysis; type: ADME
[16] = Fraction unbound in mouse plasma at 5 uM by LC-MS/MS based equilibrium dialysis method; type: ADME, cell-free
Mus musculus [17] = assay: Antipsychotic-like activity in C57Bl/6J mouse model of schizophrenia assessed as reversal of phencyclidine-induced locomotor activity at 3 to 30 mg/kg, po dosed 30 mins before administration of PCP measured for 60 mins by open field test; type: functional, organism-based
Liver microsome [18] = assay: Drug metabolism in human liver microsomes assessed as formation of 4-(2-methylbenzo[b]thiophen-3-yl)pyrimidineat 3 uM in presence of NADPH by LC-MS/MS analysis; type: ADME
[19] = Half life in rat liver microsomes at 3 uM in presence of NADPH by LC-MS/MS analysis; type: ADME
[20] = target: 5-hydroxytryptamine receptor 2B (Homo sapiens) (UniProt P41595); assay: Displacement of [3H]mesulergine from human recombinant 5-HT2B receptor expressed in CHO cells at 10 uM after 60 mins by scintillation counting analysis; type: cell-based
[21] = target: 5-hydroxytryptamine receptor 7 (Homo sapiens) (UniProt P34969); assay: Displacement of [3H]LSD from human recombinant 5-HT7 receptor expressed in CHO cells at 10 uM after 120 mins by scintillation counting analysis; type: cell-based
[22] = Fraction unbound in human plasma at 5 uM by LC-MS/MS based equilibrium dialysis method; type: ADME, cell-free
[23] = target: Adrenergic receptor alpha-1 (Rattus norvegicus) (UniProt P15823+P23944+P43140); assay: Displacement of [3H]prazosin from rat cerebral cortex adrenergic alpha1 receptor at 10 uM after 60 mins by scintillation counting analysis; type: tissue-based
[24] = target: Histamine H1 receptor (Homo sapiens) (UniProt P35367); assay: Displacement of [3H]pyrilamine from human recombinant H1 receptor expressed in HEK293 cells at 10 uM after 60 mins by scintillation counting analysis; type: cell-based
Mus musculus [25] = assay: Antipsychotic activity in C57Bl/6J mouse model of schizophrenia assessed as increase in prepulse inhibition of acoustic startle at 3 to 10 mg/kg, po administered 30 mins prior to testing relative to vehicle-treated control; type: functional, organism-based
[26] = Solubility of the compound at pH 7.4; type: physicochemical; settings: buffer
Mus musculus [27] = assay: Effect on basal locomotor activity in C57Bl/6J mouse at 3 mg/kg, po; type: ADME, organism-based; settings: in vivo
[28] = Half life in mouse liver microsomes at 3 uM in presence of NADPH by LC-MS/MS analysis; type: ADME
CYP1A = CYP1A (Homo sapiens, UniProt P04798+P05177); assay: Inhibition of CYP1A in human liver microsomes assessed as reduction in ethoxyresorufin o-deethylation by fluorescence assay; settings: probe ethoxyresorufin (O-deethylation)
[29] = target: Sodium-dependent serotonin transporter (Homo sapiens) (UniProt P31645); assay: Displacement of [3H]imipramine from human recombinant 5-HT transporter expressed in CHO cells at 10 uM after 60 mins by scintillation counting analysis; type: cell-based
[30] = target: D(1A) dopamine receptor (Homo sapiens) (UniProt P21728); assay: Displacement of [3H]SCH 23390 from human recombinant D1 receptor expressed in CHO cells at 10 uM after 60 mins by scintillation counting analysis; type: cell-based
[31] = target: 5-hydroxytryptamine receptor 3A (Homo sapiens) (UniProt P46098); assay: Displacement of [3H]BRL 43694 from human recombinant 5-HT3 receptor expressed in CHO cells at 10 uM after 120 mins by scintillation counting analysis; type: cell-based
Cytochrome P450 2C9 = Cytochrome P450 2C9 (Homo sapiens, UniProt P11712); assay: Inhibition of CYP2C9 in human liver microsomes assessed as reduction in tolbutamide 4-hydroxylation by LC-MS/MS analysis; type: ADME
[32] = Drug metabolism in mouse liver microsomes assessed as formation of 4-(2-methylbenzo[b]thiophen-3-yl)pyrimidineat 3 uM in presence of NADPH by LC-MS/MS analysis; type: ADME
[33] = target: D(2) dopamine receptor (Homo sapiens) (UniProt P14416); assay: Displacement of [3H]methyl-spiperone from human recombinant D2 receptor expressed in HEK293 cells at 30 uM after 60 mins by scintillation counting analysis; type: cell-based
[34] = Drug metabolism in mouse liver microsomes assessed as formation of 4-(3,4-dimethylthiophen-2-yl)pyrimidine at 3 uM in presence of NADPH by LC-MS/MS analysis; type: ADME
Liver microsome [35] = assay: Drug metabolism in human liver microsomes assessed as formation of 4-(3,4-dimethylthiophen-2-yl)pyrimidine at 3 uM in presence of NADPH by LC-MS/MS analysis; type: ADME

T1 sequence (P28223 whole entry): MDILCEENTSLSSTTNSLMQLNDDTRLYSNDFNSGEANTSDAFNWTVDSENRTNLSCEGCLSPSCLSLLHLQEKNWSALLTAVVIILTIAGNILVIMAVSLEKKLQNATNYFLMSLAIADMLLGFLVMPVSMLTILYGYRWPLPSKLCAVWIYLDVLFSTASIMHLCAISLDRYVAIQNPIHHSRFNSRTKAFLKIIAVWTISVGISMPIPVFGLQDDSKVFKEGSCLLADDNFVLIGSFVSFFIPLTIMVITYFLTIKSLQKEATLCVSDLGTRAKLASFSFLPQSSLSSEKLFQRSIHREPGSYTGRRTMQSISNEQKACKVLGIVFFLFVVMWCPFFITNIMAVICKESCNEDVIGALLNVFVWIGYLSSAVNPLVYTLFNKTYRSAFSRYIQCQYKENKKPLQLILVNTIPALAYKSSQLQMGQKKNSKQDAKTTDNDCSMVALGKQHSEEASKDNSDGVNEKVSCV
Sequence of D(2) dopamine receptor (Homo sapiens) (P14416 whole entry): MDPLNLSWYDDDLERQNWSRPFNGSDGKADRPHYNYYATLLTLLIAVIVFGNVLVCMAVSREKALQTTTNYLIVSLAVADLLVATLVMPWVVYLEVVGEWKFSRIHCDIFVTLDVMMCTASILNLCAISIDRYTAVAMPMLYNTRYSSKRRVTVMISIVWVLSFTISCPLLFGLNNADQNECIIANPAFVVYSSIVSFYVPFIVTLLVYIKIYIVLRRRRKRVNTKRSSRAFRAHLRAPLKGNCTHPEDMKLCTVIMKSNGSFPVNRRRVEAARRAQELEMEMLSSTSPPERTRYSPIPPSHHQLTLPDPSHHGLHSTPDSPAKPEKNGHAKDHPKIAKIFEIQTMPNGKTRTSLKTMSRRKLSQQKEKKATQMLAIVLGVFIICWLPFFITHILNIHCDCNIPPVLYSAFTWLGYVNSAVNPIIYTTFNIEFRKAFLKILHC
Sequence of 5-hydroxytryptamine receptor 6 (Homo sapiens) (P50406 whole entry): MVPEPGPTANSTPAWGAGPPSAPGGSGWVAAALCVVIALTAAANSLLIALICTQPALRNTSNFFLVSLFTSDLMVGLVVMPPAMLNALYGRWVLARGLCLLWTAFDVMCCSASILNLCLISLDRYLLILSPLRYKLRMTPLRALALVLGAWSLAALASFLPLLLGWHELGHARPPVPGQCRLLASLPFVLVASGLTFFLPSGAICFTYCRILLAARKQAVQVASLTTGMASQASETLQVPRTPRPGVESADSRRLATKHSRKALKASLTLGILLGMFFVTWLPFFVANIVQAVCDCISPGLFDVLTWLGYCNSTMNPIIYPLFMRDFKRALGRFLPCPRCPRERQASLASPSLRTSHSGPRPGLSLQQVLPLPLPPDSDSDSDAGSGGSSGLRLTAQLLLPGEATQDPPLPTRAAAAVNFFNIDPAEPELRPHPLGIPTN
Sequence of Sodium-dependent serotonin transporter (Homo sapiens) (P31645 whole entry, looked up): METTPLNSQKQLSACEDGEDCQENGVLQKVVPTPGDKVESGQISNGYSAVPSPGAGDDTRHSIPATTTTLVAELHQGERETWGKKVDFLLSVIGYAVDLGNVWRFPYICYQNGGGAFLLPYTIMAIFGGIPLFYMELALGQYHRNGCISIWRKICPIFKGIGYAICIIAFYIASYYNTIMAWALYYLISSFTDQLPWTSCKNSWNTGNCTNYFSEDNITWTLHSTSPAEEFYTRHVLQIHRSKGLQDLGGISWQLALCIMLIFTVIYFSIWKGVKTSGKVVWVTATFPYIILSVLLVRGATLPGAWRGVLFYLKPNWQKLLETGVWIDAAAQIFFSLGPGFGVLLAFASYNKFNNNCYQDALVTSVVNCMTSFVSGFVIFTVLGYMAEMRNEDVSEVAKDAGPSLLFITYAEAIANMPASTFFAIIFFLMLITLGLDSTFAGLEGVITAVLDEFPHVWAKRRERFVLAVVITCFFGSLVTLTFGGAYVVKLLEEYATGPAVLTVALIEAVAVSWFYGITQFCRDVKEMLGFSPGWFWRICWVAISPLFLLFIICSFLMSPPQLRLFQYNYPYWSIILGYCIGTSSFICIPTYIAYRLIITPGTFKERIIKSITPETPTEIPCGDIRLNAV
Sequence of Cytochrome P450 2D6 (P10635 whole entry): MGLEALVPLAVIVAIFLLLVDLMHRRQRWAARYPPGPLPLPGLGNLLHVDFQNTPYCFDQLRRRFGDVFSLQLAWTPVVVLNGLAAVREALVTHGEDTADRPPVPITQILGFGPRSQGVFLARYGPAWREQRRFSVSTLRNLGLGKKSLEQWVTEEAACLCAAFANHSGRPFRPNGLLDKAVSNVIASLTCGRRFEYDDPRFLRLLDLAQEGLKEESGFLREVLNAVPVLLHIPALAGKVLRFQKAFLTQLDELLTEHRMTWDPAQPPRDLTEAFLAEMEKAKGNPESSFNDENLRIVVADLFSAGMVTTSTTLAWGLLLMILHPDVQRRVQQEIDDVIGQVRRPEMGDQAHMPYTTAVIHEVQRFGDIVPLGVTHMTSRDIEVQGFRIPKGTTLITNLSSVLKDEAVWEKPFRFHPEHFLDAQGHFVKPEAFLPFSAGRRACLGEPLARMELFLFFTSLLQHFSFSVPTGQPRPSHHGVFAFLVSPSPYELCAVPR
Sequence of D(1A) dopamine receptor (Homo sapiens) (P21728 whole entry): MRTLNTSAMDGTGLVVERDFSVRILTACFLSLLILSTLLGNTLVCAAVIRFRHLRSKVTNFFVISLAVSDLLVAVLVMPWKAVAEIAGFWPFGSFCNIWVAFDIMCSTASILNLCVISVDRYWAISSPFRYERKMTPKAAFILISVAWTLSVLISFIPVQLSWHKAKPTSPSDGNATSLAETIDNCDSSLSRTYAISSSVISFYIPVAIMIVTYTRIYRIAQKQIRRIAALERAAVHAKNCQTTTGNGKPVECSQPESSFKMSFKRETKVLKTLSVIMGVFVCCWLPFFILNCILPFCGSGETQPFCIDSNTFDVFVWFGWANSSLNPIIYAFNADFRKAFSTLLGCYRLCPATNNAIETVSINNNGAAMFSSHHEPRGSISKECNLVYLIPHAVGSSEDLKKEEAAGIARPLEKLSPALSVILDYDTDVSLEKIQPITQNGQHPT
Sequence of Cytochrome P450 2C9 (P11712 whole entry): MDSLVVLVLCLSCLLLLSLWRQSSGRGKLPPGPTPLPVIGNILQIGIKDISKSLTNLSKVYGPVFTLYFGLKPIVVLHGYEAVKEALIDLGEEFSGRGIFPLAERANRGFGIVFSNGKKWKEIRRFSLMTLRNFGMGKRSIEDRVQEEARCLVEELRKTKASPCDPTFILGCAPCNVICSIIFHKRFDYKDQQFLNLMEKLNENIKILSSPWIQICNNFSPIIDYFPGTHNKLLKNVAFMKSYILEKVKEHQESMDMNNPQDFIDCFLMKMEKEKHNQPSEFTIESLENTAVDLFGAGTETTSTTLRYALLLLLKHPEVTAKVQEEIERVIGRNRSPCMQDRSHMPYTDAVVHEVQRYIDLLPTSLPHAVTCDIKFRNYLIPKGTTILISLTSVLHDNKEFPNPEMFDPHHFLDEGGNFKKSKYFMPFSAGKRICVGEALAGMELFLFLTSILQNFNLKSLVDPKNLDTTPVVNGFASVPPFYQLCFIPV
Sequence of Voltage-gated inwardly rectifying potassium channel KCNH2 (Q12809 whole entry): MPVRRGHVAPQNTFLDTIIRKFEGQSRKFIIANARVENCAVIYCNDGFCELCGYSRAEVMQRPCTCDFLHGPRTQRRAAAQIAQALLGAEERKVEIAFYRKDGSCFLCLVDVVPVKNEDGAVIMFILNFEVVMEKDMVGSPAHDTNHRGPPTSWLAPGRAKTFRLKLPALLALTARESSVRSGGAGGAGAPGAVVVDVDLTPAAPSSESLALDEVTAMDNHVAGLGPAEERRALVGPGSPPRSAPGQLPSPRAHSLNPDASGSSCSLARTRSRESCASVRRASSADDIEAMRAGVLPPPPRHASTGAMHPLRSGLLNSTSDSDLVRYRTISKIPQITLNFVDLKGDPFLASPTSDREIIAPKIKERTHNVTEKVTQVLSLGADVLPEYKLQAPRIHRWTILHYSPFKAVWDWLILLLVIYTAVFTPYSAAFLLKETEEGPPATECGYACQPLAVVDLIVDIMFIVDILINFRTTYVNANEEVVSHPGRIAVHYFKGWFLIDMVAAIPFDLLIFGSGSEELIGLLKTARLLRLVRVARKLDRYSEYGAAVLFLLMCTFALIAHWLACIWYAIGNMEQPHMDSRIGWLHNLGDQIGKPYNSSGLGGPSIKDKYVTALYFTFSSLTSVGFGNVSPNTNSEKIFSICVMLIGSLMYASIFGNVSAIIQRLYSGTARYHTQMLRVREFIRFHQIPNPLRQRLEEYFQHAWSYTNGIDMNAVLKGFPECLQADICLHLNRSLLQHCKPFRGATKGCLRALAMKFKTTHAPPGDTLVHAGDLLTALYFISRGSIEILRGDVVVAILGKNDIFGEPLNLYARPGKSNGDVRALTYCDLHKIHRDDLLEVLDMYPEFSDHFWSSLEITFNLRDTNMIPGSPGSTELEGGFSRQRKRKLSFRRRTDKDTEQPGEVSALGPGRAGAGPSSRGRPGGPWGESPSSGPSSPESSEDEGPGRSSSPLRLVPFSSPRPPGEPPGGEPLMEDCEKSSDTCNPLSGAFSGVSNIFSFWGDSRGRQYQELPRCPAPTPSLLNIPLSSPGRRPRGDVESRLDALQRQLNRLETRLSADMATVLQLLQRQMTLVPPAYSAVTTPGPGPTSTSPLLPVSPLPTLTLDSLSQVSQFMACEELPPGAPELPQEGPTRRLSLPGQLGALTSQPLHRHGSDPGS

SMILES: CC1=CN=CNC1c1c(C)sc2ccccc12.Cl (stereo unspecified)
minimal effective dose (Mus musculus [1]): 30 mg/kg

SMILES: Fc1c(C2NC=Nc3ccccc32)sc2ccccc12 (stereo unspecified)
Activity (Mus musculus [2]): Active

SMILES: CC1=NC=CC(c2c(C)sc3ccccc23)N1.Cl (stereo unspecified)
minimal effective dose (Mus musculus [1]): 30 mg/kg

IC50 (Cytochrome P450 3A4): 11 µM
inhibition [3]: 51%
inhibition [4]: 0%
Stability [6]: Stable
inhibition [7]: 97%
half-life at 3 µM [8]: 2.28 h
IC50 (Cytochrome P450 2C19): 25 µM
IC50 [10]: 0.356 µM
inhibition [11]: 61%
Stability [13]: Stable
inhibition [14]: 99%
inhibition [15]: 78%
IC50 (Cytochrome P450 2D6): 3.1 µM
fraction unbound at 5 µM [16]: 0.18
Drug metabolism (Liver microsome [18]): metabolite_notdetected
half-life at 3 µM [19]: 0.483 h
inhibition [20]: 81%
inhibition [21]: 94%
fraction unbound at 5 µM [22]: 0.3
inhibition [23]: 88%
inhibition [24]: 86%
solubility [26]: > 0.1 mg/mL
half-life at 3 µM [28]: 4.03 h
IC50 (CYP1A): 6.9 µM
inhibition [29]: 94%
inhibition [30]: 77%
inhibition [31]: 64%
IC50 (Cytochrome P450 2C9): 6.9 µM
Drug metabolism [32]: metabolite_notdetected
SMILES: Cc1sc2ccccc2c1[C@@H]1C=CN=CN1
IC50 [5]: > 25 µM
Activity (Mus musculus [9]): Active
Activity (Mus musculus [12]): Toxic
Activity (Mus musculus [17]): Active
Activity (Mus musculus [2]): Active
Activity (Mus musculus [25]): Active
Activity (Mus musculus [27]): Non-toxic

SMILES: Cl.Fc1ccc(-c2ccc(C3C=CN=CN3)s2)cc1 (stereo unspecified)
minimal effective dose (Mus musculus [1]): 3 mg/kg

SMILES: Brc1c(C2C=CN=CN2)sc2ccccc12 (stereo unspecified)
Activity (Mus musculus [2]): Active

SMILES: Cc1sc2c(c1C1C=CN=CN1)CCC2.Cl (stereo unspecified)
minimal effective dose (Mus musculus [1]): 10 mg/kg

SMILES: Cl.Fc1sc2ccccc2c1C1NC=NC=C1Cl (stereo unspecified)
minimal effective dose (Mus musculus [1]): 30 mg/kg

SMILES: Cc1sc2c(F)cccc2c1C1C=CN=CN1.Cl (stereo unspecified)
minimal effective dose (Mus musculus [1]): 10 mg/kg

SMILES: Cc1sc2ccccc2c1C1NC(N)=NC=C1Cl.Cl (stereo unspecified)
minimal effective dose (Mus musculus [1]): 30 mg/kg

SMILES: CCc1cc(Br)c(C2C=CN=CN2)s1.Cl (stereo unspecified)
minimal effective dose (Mus musculus [1]): 30 mg/kg

inhibition [33]: 18%
SMILES: Cc1csc(C2C=CN=CN2)c1C (stereo unspecified)
Activity (Mus musculus [2]): Active

Drug metabolism [34]: metabolite_notdetected
Stability [6]: Unstable
Stability [13]: Stable
Drug metabolism (Liver microsome [35]): metabolite_notdetected
SMILES: Cc1csc(C2C=CN=CN2)c1C.Cl (stereo in doubt; 12a)
MED (Mus musculus [1]): 3 mg/kg

SMILES: CCc1ccc(C2C=CN=CN2)s1.Cl (stereo unspecified)
minimal effective dose (Mus musculus [1]): 10 mg/kg

SMILES: Cc1sc(C2C=CN=CN2)c(C)c1C.Cl (stereo unspecified)
minimal effective dose (Mus musculus [1]): 30 mg/kg

SMILES: Cc1sc2ccc(Cl)cc2c1C1C=CN=CN1.Cl (stereo unspecified)
minimal effective dose (Mus musculus [1]): 3 mg/kg
